Experimental data published in patent US20060263802A1 (priority 2003, published 2006).

Assays:
Format in all cases: binding
[1] = test system: human monoclonal antibody CR57
[2] = test system: human monoclonal antibody CRJA
[3] = test system: human monoclonal antibody CRJB
[4] = test system: human monoclonal antibody CR57; remark: listed apart in the source
[5] = test system: human monoclonal antibody CRJB; remark: listed apart in the source
[6] = test system: human monoclonal antibody CRJA; remark: listed apart in the source

KMNGFTCTGVVTEAE
Binding of CR57 to linear peptide (PEPSCAN-ELISA signal) [1]: 76
Binding of CRJA (10 μg/ml) to looped/cyclic peptide (PEPSCAN-ELISA signal) [2]: 83
Binding of CRJB (10 μg/ml) to looped/cyclic peptide (PEPSCAN-ELISA signal) [3]: 71
Binding of CR57 (10 μg/ml) to looped/cyclic peptide (PEPSCAN-ELISA signal) [4]: 77
Binding of CRJB to linear peptide (PEPSCAN-ELISA signal) [5]: 104
Binding of CRJA to linear peptide (PEPSCAN-ELISA signal) [6]: 90

RYEESLHNPYPDYRW
Binding of CR57 to linear peptide (PEPSCAN-ELISA signal) [1]: 69
Binding of CRJA (10 μg/ml) to looped/cyclic peptide (PEPSCAN-ELISA signal) [2]: 91
Binding of CRJB (10 μg/ml) to looped/cyclic peptide (PEPSCAN-ELISA signal) [3]: 71
Binding of CR57 (10 μg/ml) to looped/cyclic peptide (PEPSCAN-ELISA signal) [4]: 98
Binding of CRJB to linear peptide (PEPSCAN-ELISA signal) [5]: 112
Binding of CRJA to linear peptide (PEPSCAN-ELISA signal) [6]: 96

NGVFFNGIILGPDGN
Binding of CR57 to linear peptide (PEPSCAN-ELISA signal) [1]: 66
Binding of CRJA (10 μg/ml) to looped/cyclic peptide (PEPSCAN-ELISA) [2]: 46
Binding of CRJB (10 μg/ml) to looped/cyclic peptide (PEPSCAN-ELISA) [3]: 85
Binding of CR57 (10 μg/ml) to looped/cyclic peptide (PEPSCAN-ELISA) [4]: 58
Binding of CRJB to linear peptide (PEPSCAN-ELISA signal) [5]: 117
Binding of CRJA to linear peptide (PEPSCAN-ELISA signal) [6]: 62

RVGGRCHPHVNGVFF
Binding of CR57 to linear peptide (PEPSCAN-ELISA signal) [1]: 86
Binding of CRJA (10 μg/ml) to looped/cyclic peptide (PEPSCAN-ELISA) [2]: 117
Binding of CRJB (10 μg/ml) to looped/cyclic peptide (PEPSCAN-ELISA) [3]: 104
Binding of CR57 (10 μg/ml) to looped/cyclic peptide (PEPSCAN-ELISA) [4]: 107
Binding of CRJB to linear peptide (PEPSCAN-ELISA signal) [5]: 143
Binding of CRJA to linear peptide (PEPSCAN-ELISA signal) [6]: 93

PWSPIDIHHLSCPNN
Binding of CR57 to linear peptide (PEPSCAN-ELISA signal) [1]: 62
Binding of CRJA (10 μg/ml) to looped/cyclic peptide (PEPSCAN-ELISA signal) [2]: 91
Binding of CRJB (10 μg/ml) to looped/cyclic peptide (PEPSCAN-ELISA signal) [3]: 75
Binding of CR57 (10 μg/ml) to looped/cyclic peptide (PEPSCAN-ELISA signal) [4]: 93
Binding of CRJB to linear peptide (PEPSCAN-ELISA signal) [5]: 104
Binding of CRJA to linear peptide (PEPSCAN-ELISA signal) [6]: 76

KTTKESLVIISPSVA
Binding of CR57 to linear peptide (PEPSCAN-ELISA signal) [1]: 101
Binding of CRJA (10 μg/ml) to looped/cyclic peptide (PEPSCAN-ELISA signal) [2]: 104
Binding of CRJB (10 μg/ml) to looped/cyclic peptide (PEPSCAN-ELISA signal) [3]: 75
Binding of CR57 (10 μg/ml) to looped/cyclic peptide (PEPSCAN-ELISA signal) [4]: 111
Binding of CRJB to linear peptide (PEPSCAN-ELISA signal) [5]: 112
Binding of CRJA to linear peptide (PEPSCAN-ELISA signal) [6]: 82

SLHSRVFPSGKCSGV
Binding of CR57 to linear peptide (PEPSCAN-ELISA signal) [1]: 69
Binding of CRJA (10 μg/ml) to looped/cyclic peptide (PEPSCAN-ELISA signal) [2]: 97
Binding of CRJB (10 μg/ml) to looped/cyclic peptide (PEPSCAN-ELISA signal) [3]: 86
Binding of CR57 (10 μg/ml) to looped/cyclic peptide (PEPSCAN-ELISA signal) [4]: 115
Binding of CRJB to linear peptide (PEPSCAN-ELISA signal) [5]: 111
Binding of CRJA to linear peptide (PEPSCAN-ELISA signal) [6]: 96

IFNKTLMEADAHYKS
Binding of CR57 to linear peptide (PEPSCAN-ELISA signal) [1]: 100
Binding of CRJA (10 μg/ml) to looped/cyclic peptide (PEPSCAN-ELISA) [2]: 98
Binding of CRJB (10 μg/ml) to looped/cyclic peptide (PEPSCAN-ELISA) [3]: 86
Binding of CR57 (10 μg/ml) to looped/cyclic peptide (PEPSCAN-ELISA) [4]: 107
Binding of CRJB to linear peptide (PEPSCAN-ELISA signal) [5]: 118
Binding of CRJA to linear peptide (PEPSCAN-ELISA signal) [6]: 87

LVHPLADPSTVFKDG
Binding of CR57 to linear peptide (PEPSCAN-ELISA signal) [1]: 164
Binding of CRJA (10 μg/ml) to looped/cyclic peptide (PEPSCAN-ELISA) [2]: 108
Binding of CRJB (10 μg/ml) to looped/cyclic peptide (PEPSCAN-ELISA) [3]: 116
Binding of CR57 (10 μg/ml) to looped/cyclic peptide (PEPSCAN-ELISA) [4]: 133
Binding of CRJB to linear peptide (PEPSCAN-ELISA signal) [5]: 174
Binding of CRJA to linear peptide (PEPSCAN-ELISA signal) [6]: 106

GFTCTGVVTEAENYT
Binding of CR57 to linear peptide (PEPSCAN-ELISA signal) [1]: 71
Binding of CRJA (10 μg/ml) to looped/cyclic peptide (PEPSCAN-ELISA signal) [2]: 87
Binding of CRJB (10 μg/ml) to looped/cyclic peptide (PEPSCAN-ELISA signal) [3]: 68
Binding of CR57 (10 μg/ml) to looped/cyclic peptide (PEPSCAN-ELISA signal) [4]: 94
Binding of CRJB to linear peptide (PEPSCAN-ELISA signal) [5]: 86
Binding of CRJA to linear peptide (PEPSCAN-ELISA signal) [6]: 90
